# According to PubChem BioAssay AID1963850 (Molecular Pharmacology Branch, DTP, NCI, 2024):
# Where “and” joins values, the source holds several entries; their conditions need not be identical. Equal entries are not always repeated.
# Test system: 192522-019-R-J2-PDC complex tumor spheroid viability
# Assay: Anticancer human tumor 192522-019-R-J2-PDC patient-derived colon adenocarcinoma cell line growth inhibition [POLQ]
# Details: for viability, T/C: stronger effect = lower value
# Description: Multicellular complex tumor spheroid response to Polymerase (POL) inhibitors (novobiocin, ART-558, RP6685) in combination with a variety of drugs and investigational agents in selected tumor cell lines
# The POL inhibitors (novobiocin, ART-558, and RP6685) were evaluated both individually and in combination with standard of care and investigational anticancer small molecules within a complex spheroid model of solid tumors. . Complex spheroids include a stromal component modeled by human endothelial cells (HUVEC) and fibroblasts modeled by human mesenchymal stem cells (MSCs). The concentration ranges selected for each drug and investigational agent were based upon clinically achievable concentrations if the clinical Cmax of the agent was known.
# Compounds. The drugs and investigational agents: novobiocin (NSC847541), ART-558 (NSC835418), RP-6685 (NSC848927), peposertib (NSC802822), ceralasertib (NSC780249), elimusertib (NSC800525), camonsertib (NSC841442), AZD-1390 (NSC803789), olaparib (NSC753686), talazoparib (NSC767125), rucaparib (NSC756644), sotorasib (NSC818433), MRTX-1133 (NSC836407), SN-38 (NSC673596), topotecan (NSC609699), epotoside (NSC141540), doxorubicin (NSC123127), gemcitabine (NSC613327), 5-fluorouracil (NSC19893), paclitaxel (NSC125973), vemurafenib (NSC761431), MSA-2 (NSC828583), SN-011 (NSC837082), adavosertib (NSC754352), prexasertib (NSC758257), carboplatin (NSC241240) and oxaliplatin (NSC266046), were obtained from the National Cancer Institute (NCI) Developmental Therapeutics Program Chemical Repository (21). The FDA-approved anticancer drug set is available from the Developmental Therapeutics Program at https://dtp.cancer.gov/organization/dscb/obtaining/. […] The stock solutions were prepared in dimethyl sulfoxide (DMSO, Sigma-Aldrich, St. Louis, MO, cat. D2650), except for the platinum compounds which were prepared in saline (Quality Biological, Gaithersburg, MD, cat. 114-055-101), at 800-fold the tested concentration and stored at -70 degrees C prior to their use. All drugs and investigational agents were tested over a range starting from a high concentration at or near the clinical Cmax and decreasing in half-log increments. If the clinical Cmax for an agent had not been determined, the highest concentration tested was 10 microM, except for SN-38, which was tested at a high concentration of 1 microM.
# Cell Culture. All cells were maintained in an incubator at 37 degrees C and 5% CO2 with 95% humidity. The PDC lines were cultured according to standard operating procedures established by the NCI PDMR (https://pdmr.cancer.gov). Table 3 of the manuscript, lists the cell lines along with the number of the three cell types plated to form the mct-spheroids and media for tumor cell growth. After thawing, all PDC lines, except 997537-175-T-J1-PDC and 415267-285-R-J2-PDC, were cultured in Matrigel-coated flasks prepared with a working solution of 1X Ham's F-12 nutrient mix, without supplementation (Thermo Fisher Scientific, cat. 11765054), 100 U/mL penicillin-streptomycin (Thermo Fisher Scientific, cat. 15140122), and 2.5% Matrigel (Corning Inc., Corning, NY, cat. 354248) for the first three passages. The two PDC lines 997537-175-T-J1-PDC and 415267-285-R-J2-PDC were cultured on uncoated flasks. The 857933-349-R-J2-PDC line was cultured in 6C/Colon 1B media containing advanced DMEM/F-12 (Thermo Fisher Scientific, cat. 12634028), 10 mM HEPES (Thermo Fisher Scientific, cat. 15630080), 1X GlutaMAX supplement (Thermo Fisher Scientific, cat. 35050061), 0.1 mg/mL primocin (InvivoGen, San Diego, CA, cat. ant-pm-2), 10% defined fetal bovine serum, heat inactivated (HyClone Laboratories Inc., Logan, UT, cat. SH30070.03HI), 50% L-WRN conditioned media (ATCC, cat. CRL-3276), 1.25 mM N-Acetyl-L-cysteine (Sigma-Aldrich, cat. A9165), 10 mM nicotinamide (Sigma-Aldrich, cat. N0636), 1X B-27 supplement (Thermo Fisher Scientific, cat. 17504044), 1X N-2 supplement (Thermo Fisher Scientific, cat. […]
# 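Note: spheroids exposed to drugs for seven days before reading.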
# 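Throughout, for viability, T/C: 100% = DMSO vehicle control viability in luminescence.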
structure (smiles),measurement,setting,value
CC1COCCN1c1cc(C2(O)CC3CCC(C2)O3)c2cnn(-c3ccn[nH]3)c2n1 (stereo not drawn),"viability, T/C",compound 0.0316 µM,108% and 105% and 100%
same,"viability, T/C",compound 0.1 µM,70.7% and 76.9% and 78.7%
same,"viability, T/C",compound 0.316 µM,42% and 35.6% and 46%
same,"viability, T/C",compound 1 µM,33.8% and 33.4% and 34.9%
same,"viability, T/C",compound 3.16 µM,45.5% and 42.6% and 44.3%
same,"viability, T/C",compound 10 µM,49.2% and 50.7% and 51.2%
same,IC50,curve of compound,234 nM and 235 nM and 272 nM
C#Cc1c(F)ccc2cc(O)cc(-c3ncc4c(N5CC6CCC(C5)N6)nc(OCC56CCCN5CC(F)C6)nc4c3F)c12 (stereo not drawn),"viability, T/C",compound 0.0316 µM,102% and 98.2% and 109%
same,"viability, T/C",compound 0.1 µM,93.6% and 81.8% and 87.3%
same,"viability, T/C",compound 0.316 µM,73.3% and 77.1% and 80.5%
same,"viability, T/C",compound 1 µM,78.4% and 77.9% and 83.4%
same,"viability, T/C",compound 3.16 µM,78.9% and 73.7% and 70.6%
same,"viability, T/C",compound 10 µM,67.8% and 64.1% and 64.3%
same,IC50,curve of compound,> 10000 nM
CC1COCCN1c1cc(-c2ccnn2C)c2ccnc(-c3ccn[nH]3)c2n1 (stereo not drawn) + COC1C(OC(N)=O)C(O)C(Oc2ccc3c(O)c(NC(=O)c4ccc(O)c(CC=C(C)C)c4)c(=O)oc3c2C)OC1(C)C,IC50,"curve of first compound, second compound 0.0316 µM",248 nM
same,IC50,"curve of first compound, second compound 0.1 µM",304 nM
same,IC50,"curve of first compound, second compound 0.316 µM",385 nM
same,IC50,"curve of first compound, second compound 1 µM",304 nM
same,IC50,"curve of first compound, second compound 3.16 µM",304 nM
same,IC50,"curve of first compound, second compound 10 µM",294 nM
same,"viability, T/C","second compound 0.0316 µM, first compound 0.0316 µM",92.7%
same,"viability, T/C","second compound 0.0316 µM, first compound 0.1 µM",70.6%
same,"viability, T/C","second compound 0.0316 µM, first compound 0.316 µM",45.5%
same,"viability, T/C","second compound 0.0316 µM, first compound 1 µM",34.8%
same,"viability, T/C","second compound 0.0316 µM, first compound 3.16 µM",38.4%
same,"viability, T/C","second compound 0.0316 µM, first compound 10 µM",45%
same,"viability, T/C","second compound 0.1 µM, first compound 0.0316 µM",103%
same,"viability, T/C","second compound 0.1 µM, first compound 0.1 µM",80.9%
same,"viability, T/C","second compound 0.1 µM, first compound 0.316 µM",50.3%
same,"viability, T/C","second compound 0.1 µM, first compound 1 µM",35.9%
same,"viability, T/C","second compound 0.1 µM, first compound 3.16 µM",36.9%
same,"viability, T/C","second compound 0.1 µM, first compound 10 µM",45.9%
same,"viability, T/C","second compound 0.316 µM, first compound 0.0316 µM",93.4%
same,"viability, T/C","second compound 0.316 µM, first compound 0.1 µM",84.1%
same,"viability, T/C","second compound 0.316 µM, first compound 0.316 µM",52.8%
same,"viability, T/C","second compound 0.316 µM, first compound 1 µM",35.4%
same,"viability, T/C","second compound 0.316 µM, first compound 3.16 µM",39.1%
same,"viability, T/C","second compound 0.316 µM, first compound 10 µM",47.6%
same,"viability, T/C","second compound 1 µM, first compound 0.0316 µM",101%
same,"viability, T/C","second compound 1 µM, first compound 0.1 µM",87.6%
same,"viability, T/C","second compound 1 µM, first compound 0.316 µM",49.5%
same,"viability, T/C","second compound 1 µM, first compound 1 µM",33.8%
same,"viability, T/C","second compound 1 µM, first compound 3.16 µM",33.6%
same,"viability, T/C","second compound 1 µM, first compound 10 µM",47.2%
same,"viability, T/C","second compound 3.16 µM, first compound 0.0316 µM",98.6%
same,"viability, T/C","second compound 3.16 µM, first compound 0.1 µM",86.1%
same,"viability, T/C","second compound 3.16 µM, first compound 0.316 µM",49.5%
same,"viability, T/C","second compound 3.16 µM, first compound 1 µM",34.6%
same,"viability, T/C","second compound 3.16 µM, first compound 3.16 µM",43.1%
same,"viability, T/C","second compound 3.16 µM, first compound 10 µM",48.3%
same,"viability, T/C","second compound 10 µM, first compound 0.0316 µM",103%
same,"viability, T/C","second compound 10 µM, first compound 0.1 µM",77.6%
same,"viability, T/C","second compound 10 µM, first compound 0.316 µM",50.2%
same,"viability, T/C","second compound 10 µM, first compound 1 µM",32.3%
same,"viability, T/C","second compound 10 µM, first compound 3.16 µM",44.9%
same,"viability, T/C","second compound 10 µM, first compound 10 µM",46.8%
C=CCn1c(=O)c2cnc(Nc3ccc(N4CCN(C)CC4)cc3)nc2n1-c1cccc(C(C)(C)O)n1,"viability, T/C",compound 0.00316 µM,101% and 105% and 108%
same,"viability, T/C",compound 0.01 µM,97.8% and 97.2% and 97%
same,"viability, T/C",compound 0.0316 µM,97.5% and 100% and 99.1%
same,"viability, T/C",compound 0.1 µM,102% (2×) and 106%
same,"viability, T/C",compound 0.316 µM,85.8% and 97% and 86.1%
same,"viability, T/C",compound 1 µM,24.8% and 36.2% and 38.5%
same,IC50,curve of compound,627 nM and 773 nM and 764 nM
COc1ccc([C@@H](O)c2cc(-c3ncnc4cc(N5CCOCC5)ccc34)c(F)cc2Cl)nn1,"viability, T/C",compound 0.0316 µM,105% and 101% and 113%
same,"viability, T/C",compound 0.1 µM,93.6% and 91.3% and 99.9%
same,"viability, T/C",compound 0.316 µM,100% and 94.7% and 106%
same,"viability, T/C",compound 1 µM,77.6% and 101% and 102%
same,"viability, T/C",compound 3.16 µM,83% and 75.1% and 92.5%
same,"viability, T/C",compound 10 µM,54.5% and 64.9% and 65.9%
same,IC50,curve of compound,> 10000 nM
COc1cc(C2c3cc4c(cc3C(OC3OC5COC(C)OC5C(O)C3O)C3COC(=O)C23)OCO4)cc(OC)c1O (stereo not drawn),"viability, T/C",compound 0.0316 µM,101% and 100% and 97.1%
same,"viability, T/C",compound 0.1 µM,96.5% and 97% and 97.3%
same,"viability, T/C",compound 1 µM,86.6% and 86% and 84.8%
same,"viability, T/C",compound 3.16 µM,59.9% (2×) and 65.3%
same,"viability, T/C",compound 10 µM,75.5% and 79.4% and 55.1%
same,IC50,curve of compound,> 10000 nM
CC(C)n1c(=O)n(C)c2cnc3cc(F)c(-c4ccc(OCCCN5CCCCC5)nc4)cc3c21,"viability, T/C",compound 0.0316 µM,102% and 106% and 98.7%
same,"viability, T/C",compound 0.1 µM,87.7% and 95.6% and 105%
same,"viability, T/C",compound 0.316 µM,89.9% and 108% and 92.3%
same,"viability, T/C",compound 1 µM,114% and 122% and 112%
same,"viability, T/C",compound 3.16 µM,118% (2×) and 130%
same,"viability, T/C",compound 10 µM,92.8% and 101% and 90.6%
same,IC50,curve of compound,> 10000 nM
